This is an account of results in publication PMC12704579, “New Anticancer 4‐Aryldihydropyrimidinone‐5‐Carboxylates Targeting Hsp90” (Chemical Biology & Drug Design, 2025).

In data set [1] the test system is HCC1954 cells. More on the design: method as in Bordoni [2016]. The following applies: invasive breast cancer cell line HCC1954; ref Bordoni [2016]; cited from earlier work.
For data set [2], the system named is Bcl3-p50. Further details: method as in Soukupová [2013]. The following applies: ref Soukupová [2013]; cited from earlier work.
Data set [3] can be described thus: CellTiter-Blue cell viability assay, HEK-293 (24 h). The format is cell-based, human. Particulars: human, HEK-293 cells, CellTiter-Blue, 24 h incubation, 10 μM test compound, standardised to DMSO control. On the procedure: (§1) Human Embryonic Kidney cells (HEK‐293) and human breast cancer cells (MCF‐7, MDA‐MB‐231 and HCC1954) were cultured in complete growth media: […] 1X (Gibco); 10% v/v Fetal Bovine Serum (FBS, Sigma Dorset UK) and L‐glutamine (2 mM, Invitrogen). SW‐480‐WT cells were maintained in selective media made up of Dulbecco's Modified Eagle Medium (Gibco), enriched with […] of Geneticin Selective Antibiotic (G418 Sulfate; Gibco, Thermo Fisher). Cells were incubated at a 5% CO2 atmosphere at 37°C.
(§2) Cells were cultured in 96‐well plates in 90 μL at a seeding density of 1 × 10^6 cells per well. Compound samples were prepared at different concentrations (1 mM, 100 μM, 10 μM, 1 μM, 100 nM, 10 nM) and 10 μL of each concentration was seeded in each well. Two different negative controls were used: DMSO 0.01% and 0.001%. Paclitaxel (30% w/v) was used as a positive control. Cells were treated for 24 h after which 20 μL of CellTitre‐Blue reagent (Promega, Southampton, UK) was added and incubated for 2 h at 37°C in 5% CO2. Fluorescence was measured at 560/590 nm on a Fluorostar Optima plate reader (BMG Labtech, Bucks, UK). Assay end points were normalised to 0% (DMSO only) and fitted to a semilog plot using at least n = 3 technical replicates (n = 6 for DMSO control and paclitaxel control) and N = 3 independent replicates. The curve fit was performed using the GraphPad Prism software and the standard Hill equation.
(§3) In view of previous reports on Hsp90 inhibitors and their effects on cancer cell viability (Eachkoti et al. [2014]) and clonogenicity (Kinzel et al. [2016]), new compounds were tested for inhibition of cell viability within both non‐tumourigenic (HEK‐293) and breast cancer cell lines (MDA‐MB‐231) at a fixed concentration of 10 μM. The well‐established CellTiter‐Blue endpoint assay was used to assess cell viability. New compounds were also assessed in a colony forming assay (MCF‐7 breast cancer cell line), used as an efficacy screening to provide an indication of the inhibition of clonogenicity for these small molecules (Table 1).

In data set [4] the test system is HEK-293 cells. Described as above. Particulars: Homo sapiens, HEK293; 24 h incubation time. The format is cell-based, human. Here is the method:
as §1, §2, §3

For data set [5], the system named is MCF-7 cells. In words: Colony forming assay, MCF-7. Particulars: for IC50: Homo sapiens, MCF7, 168 h, 7 days; for % Clonogenicity (MCF-7, 10 μM): percentage of survival colonies, 7-day incubation, standardised to DMSO control. The format is cell-based, human. On the procedure:
as §1
Cells were seeded in a 12‐well plate at 400 cells per well. One hour after the seeding of the cells, compounds (1 mM, 100 μM, 10 μM, 1 μM, 100 nM, 10 nM) or vehicle were added into the wells in triplicate (DMSO vehicle 0.1% and 1%). After 7 days, colonies were stained with 350 μL of crystal violet solution, incubated for 30 min at room temperature, then wells were washed in water and dried. At least the best 3 independent experiments out of 5 independent repeats were used to perform the statistical analysis of the results. Colonies were counted by GelCount Colony Counter (Oxford Optronix Ltd.) using the GelCount 1.1.8.0 software. Assay end points were normalised to 0% (DMSO only) and fitted to a semi‐log plot using at least n = 3 technical replicates (n = 6 for DMSO control and N = 3 independent replicates). The curve fit was performed using GraphPad Prism.
as §3

Data set [6] has as its system MDA-MB-231 cells. The experiment in a line: CellTiter-Blue cell viability assay, MDA-MB-231 (24 h). The format is cell-based, human. Particulars: Homo sapiens, MDA-MB-231, 24 h; for GI50: 24 h incubation time; for viability at 10 µM: CellTiter-Blue, 24 h incubation, 10 μM test compound, standardised to DMSO control. On the procedure:
as §1, §2, §3
A general note: The colour change of resazurin is a common sign of viable cells or microbes.

In data set [7] the target is T1, Recombinant human Hsp90 alpha protein (Homo sapiens, UniProt P07900).
T1 construct: human full‐length protein, expressed in Escherichia coli; His tag (C); purchased Abcam ab80369; host or cells: Escherichia coli
In words: Transcreener ADP FP Hsp90 ATPase assay. The format is biochemical. The following applies: Recombinant human HSP90, 100 μM ATP; read-out: ATPase assay on rh-Hsp90 IC50. Here is the method: Transcreener ADP (cat. no. 3004‐1K) and ADP2 (cat. no. 3010‐1K) FP assay kits were obtained from Bellbrook Laboratories. Recombinant human Hsp90 alpha protein (active), human full‐length protein, expressed in Escherichia coli with > 90% purity and C‐terminus His tag, was purchased from Abcam (ab80369). All FP assays were carried out in black, 384‐well, low‐volume, polystyrene nonbinding microplates from Corning Life Sciences. All basic buffer components were obtained from Sigma‐Aldrich Chemical Co. 17‐AAG (Figure 1) was obtained from Abcam. Using the Transcreener ADP FP kit, the conditions for the recombinant human Hsp90 ATPase reaction were 50 mM HEPES (pH 7.4), 20 mM KCl, 2 mM EGTA, 4 mM MgCl2, and 0.01% Brij‐35 in a 10‐μL total assay volume. The final assay concentration of ATP was 100 μM for Hsp90. Due to the relatively low level of ATPase activity compared with other enzymes, the plate was incubated at 37°C and run over 1, 2 and 3 h time points. The reaction was stopped, and the ADP was detected by adding 10 μL of 50 mM HEPES (pH 7.4), 400 mM NaCl, 20 mM EDTA, 0.01% Brij35, 75 μg/mL anti‐ADP monoclonal antibody, and 4 nM ADP far red tracer. The plate was sealed, centrifuged at 600 g for 1 min, and left at room temperature for 1 h. FP readings for the Hsp90 ATPase Transcreener assays were performed on a Clariostar plate reader ([…]). A blank mP signal composed of protein, antibody, labelled ADP, but no ATP substrate gave similar mP values to those seen in the no‐protein controls. The upper limit of the assay window was defined by a no‐protein control, and the mP in the presence of heat shock protein was subtracted from this control to generate a change in polarisation (ΔmP), which was plotted on the activity graphs. Therefore, the data take into account the spontaneous hydrolysis of ATP. Each value is the mean of triplicate determinations with standard deviations (SD) shown. IC50 values were calculated using GraphPad Prism software with the nonlinear regression curve fitted to the log (inhibitor concentration) against the raw mP values on the linear portion of the standard curve.

With `CCOc1cc(C2NC(=O)NC(C)=C2C(=O)OCc2ccc3c(c2)OCO3)ccc1O` (stereo not shown) [Compound 1], the “Inhibitory activity in colony forming assay, HCC1954” value in data set [1] is listed as “potent inhibitory activity”. Moreover, in data set [2], the “Activity within the Bcl3-binding assays” value is given as “not active”.

As a reminder, the viability is a read-out of living cells in per cent, often relative to untreated cells. The term GI50 denotes the concentration giving 50% growth inhibition. The term IC50 denotes the concentration needed to halve the response being measured. Turning to `CC1=C(C(=O)OCc2ccccc2)C(c2ccccc2F)NC(=O)N1` (stereo not shown) [Compound 5m, Benzyl 4‐(2‐Fluorophenyl)‐6‐Methyl‐2‐Oxo‐1,2,3,4‐Tetrahydropyrimidine‐5‐Carboxylate], in data set [3], the viability at 24 h, 10 µM turned out to be 97.7 ± 3.27%. For the same compound, the GI50 in data set [4] came to 20.4 µM; in data set [6], 84.9 µM. Moreover, the IC50 in data set [5] is 15.7 µM; in data set [7], 16.6 µM. For the same compound, the “% Clonogenicity (MCF-7, 10 μM)” value in data set [5] is recorded as 99.95 ± 2.40%. In addition, the viability at 10 µM in data set [6] turned out to be 95.2 ± 3.72%.

With `CC1=C(C(=O)OCc2ccccc2)C(c2ccc(C)cc2F)NC(=O)N1` (stereo not shown) [Compound 5n, Benzyl 4‐(2‐Fluoro‐4‐Methylphenyl)‐6‐Methyl‐2‐Oxo‐1,2,3,4‐Tetrahydropyrimidine‐5‐Carboxylate], the viability at 24 h, 10 µM in data set [3] was found to be 98.7 ± 2.49%. In addition, the GI50 in data set [4] was determined as 39.6 µM. For the same compound, in data set [5], the IC50 turned out to be 7.17 µM and the “% Clonogenicity (MCF-7, 10 μM)” value was 90.54 ± 0.81%. Further, in data set [6], the GI50 was determined as 86.7 µM and the viability at 10 µM was determined as 97.3 ± 1.3%. Besides, in data set [7], the IC50 was found to be 74.6 µM.
